# Results: patent US20220370606A1, “Combination Treatments Of Cancer Comprising A TLR Agonist” (Pfizer Inc., priority 2018, published 2022)
# Experiments:
# Type in all cases: in vivo, mouse
# [1] = tested on: effector T cells in the tumor (TILs) (CD8+/CD44+ cells); test: Example 5: activated effector T cells in the tumor (TILs) of B16F10 tumor mice (FACS); details: 24 hours after treatment, 5 mg/kg, mean from 5 mice
# Procedure: (§1) This example illustrates activation of immune cells in a mouse tumor model in response to a TLR3 or TLR9 agonist.
# (§2) Six to eight week old female C57BL/6 mice were purchased from the Jackson Laboratories. All animals were housed in a pathogen free vivarium facility at Pfizer and experiments were conducted according to the protocols in accordance with the Institutional Animal Care and Use Committee (IACUC) guidelines.
# (§3) The B16F10 melanoma cell line was purchased from American Type Culture Collection (ATCC). Cells were cultured in Dulbecco's Modified Eagle's Medium (DMEM) supplemented with 10% fetal bovine serum (FBS), 2 mM L-glutamine at 37° C. in 5% carbon dioxide (CO2), and IMPACT-tested for pathogens at Research Animal Diagnostic Laboratory (RADIL) (Columbia, Mo.). Pathogen-free cells growing in an exponential growth phase were harvested and used for tumor inoculation.
# (§4) The TLR3 agonist was polyinosine-polycytidylic acid [poly(I:C)], high molecular weight [a synthetic analog of double-stranded RNA (dsRNA)], purchased from InvivoGen. The TLR9 agonist was CpG24555
# On day 0, C57BL/6 mice were inoculated subcutaneously at the right flank with 5×10^5 B16F10 cells in PBS. […] The treatment groups were 1) PBS (control); 2) poly(I:C) (TLR3 agonist); 3) CpG24555 (TLR9 agonist). Treatment was started on the same day as randomization. […]
# B16F10 melanoma tumors [2] = test: Example 3A: TLR3 agonist with anti-PD-1, anti-OX40, anti-4-1BB antibodies, murine B16F10 melanoma model; details: poly(I:C) 2.5 mg/kg it x1 day 9, anti-PD-1 15, anti-OX40 5, anti-4-1BB 3 mg/kg ip x3
# Description: This example illustrates the therapeutic activity of a TLR3 agonist in combination with i) an antagonist anti-PD-1 antibody; ii) an antagonist anti-PD-1 antibody and an agonist anti-OX40 antibody; iii) an antagonist anti-PD-1 antibody and an agonist anti-4-1-BB antibody; and iv) an antagonist anti-PD-1 antibody, an agonist anti-4-1-BB antibody, and an agonist anti-OX40 antibody in a murine B16F10 melanoma model.
# as §2
# as §3, with “MO).” for “Mo.).”
# (§5) The TLR3 agonist was polyinosine-polycytidylic acid [poly(I:C)], high molecular weight [a synthetic analog of double-stranded RNA (dsRNA)], purchased from InvivoGen. Poly(I:C) was dosed at 2.5 mg/kg, in phosphate buffered saline (PBS) (Life Technologies), intratumorally (it) for one dose 9 days after tumor inoculation.
# (§6) Therapeutic mouse anti-mouse 4-1BB mAb (mouse immunoglobulin G1 [mIgG1]), derived from the parental clone MAB9371 (R&D Systems), was prepared in-house. Therapeutic mouse anti-OX40 antibodies with the mIgG1 isotype (anti-OX40 mIgG1) were derived from parental clone OX86 in house. Therapeutic mouse anti-mouse PD-1 mAb (mIgG1) was prepared in-house. Anti-PD-1, anti-OX40 antibody and anti-4-1BB antibodies were dosed at 15 mg/kg, 5 mg/kg and 3 mg/kg, respectively, in phosphate buffered saline (PBS) (Life Technologies), and dosed at 0.2 mL per mouse intraperitoneally (ip) for 3 doses 3 to 4 days apart.
# (§7) C57BL/6 mice were inoculated subcutaneously at the right flank with 0.3×10^6 B16F10 cells in 0.1 mL of PBS. When tumors reached target size, mice were randomized into treatment groups. Treatment was started on the same day as randomization. Tumor size was measured 3-4 times weekly in 2 dimensions using a caliper, and the volume was calculated in cubic millimeters using the formula: V=0.5 L×W^2 where L is the longest diameter of the tumor and W is the diameter perpendicular to L. Body weight was recorded weekly.
# Results from Example 3A are shown in FIGS. 3A-3L and summarized in Table 3 below [mean tumor size±standard deviation (SD)]. Statistical analyses were performed using GraphPad Prism 6.0. 2-way ANOVA was applied to compare the statistical differences among multiple groups relative to the isotype control or other treatment groups. P<0.05 was considered as significant difference. Tumor measurements are in mm^3. For most treatment groups, more days post-tumor inoculation (also referred to as “days post implantation”) are shown in FIGS. 3A-3L than in the corresponding information in Table 3 (due to the reduction in the number of mice in most groups over the course of the study, and the increase in SD with a reduced number of mice).
# B16F10 melanoma tumors [3] = test: Example 1: TLR3 agonist with anti-OX40 and/or anti-4-1BB antibody, murine B16F10 melanoma model; details: poly(I:C) 2.5 mg/kg it x1 day 9, anti-OX40 5 mg/kg, anti-4-1BB 3 mg/kg ip x3
# Procedure: This example illustrates the therapeutic activity of a TLR3 agonist in combination with one or both of: i) an agonist anti-OX40 antibody and ii) an agonist anti-4-1BB antibody in a murine B16F10 melanoma model.
# as §2, §3, §5
# as §6, with “Anti-OX40” for “Therapeutic mouse anti-mouse PD-1 mAb (mIgG1) was prepared in-house. Anti-PD-1, anti-OX40”, “at” for “at 15 mg/kg,”
# as §7, with “0.3 x 10^6” for “0.3×10^6”
# Results are shown in FIGS. 1A-1H and summarized in Table 1 below [mean tumor size±standard deviation (SD)]. Statistical analyses were performed using GraphPad Prism 6.0. 2-way ANOVA was applied to compare the statistical differences among multiple groups relative to the isotype control or other treatment groups. P <0.05 was considered as significant difference. Tumor measurements are in mm^3. For most treatment groups, more days post-tumor inoculation (also referred to as “days post implantation”) are shown in FIGS. 1A-1 H than in the corresponding information in Table 1 (due to the reduction in the number of mice in most groups over the course of the study, and the increase in SD with a reduced number of mice).
# [4] = tested on: dendritic cells in the spleen (CD11c+/CD11b+/CD8+ cells); test: Example 5: activated dendritic cells in the spleen of B16F10 tumor mice (FACS); details: 24 hours after treatment, 5 mg/kg, mean from 5 mice
# Procedure: as §1, §2, §3, §4
# (§8) On day 0, C57BL/6 mice were inoculated subcutaneously at the right flank with 5×10^5 B16F10 cells in PBS. […] The treatment groups were 1) PBS (control); 2) poly(I:C) (TLR3 agonist); 3) CpG24555 (TLR9 agonist). Treatment was started on the same day as randomization. Poly(I:C) and CpG24555 were dosed at 5 mg/kg, in phosphate buffered saline (PBS) (Life Technologies).
# (§9) 24 hours after treatment, the mice were euthanized and their spleen, draining lymph nodes, and B16F10 tumor were harvested. The harvested spleen, draining lymph nodes, and B16F10 tumor were dissociated to single cell suspensions, and then stained for evaluation of multiple markers by FACS analysis. To evaluate dendritic cell activation, cells were incubated with anti-CD11c, anti-CD11b, and anti-CD8 mAbs, and additionally one of anti-CD40, anti-CD86, or anti-PD-L1 mAbs. To evaluate effector T cell activation, cells were incubated with anti-CD8 and anti-CD44 mAbs, and additionally one of anti-OX40 or anti-4-1BB mAbs. […]
# [5] = tested on: dendritic cells in the draining lymph nodes (CD11c+/CD11b+/CD8+ cells); test: Example 5: activated dendritic cells in the draining lymph nodes of B16F10 tumor mice (FACS); details: 24 hours after treatment, 5 mg/kg, mean from 5 mice
# Procedure: as §1, §2, §3, §4, §8, §9
substance,measurement,setting,value
polyinosine-polycytidylic acid [TLR3 agonist],% 4-1BB+ of CD8+/CD44+ cells (activated effector T cells),[1],36.8%
same,% OX-40+ of CD8+/CD44+ cells (activated effector T cells),[1],55.3%
same,Mean Tumor Size,B16F10 melanoma tumors [2]; day 9 post-tumor inoculation,74 mm^3
same,Mean Tumor Size,B16F10 melanoma tumors [2]; day 13 post-tumor inoculation,156 mm^3
same,Mean Tumor Size,B16F10 melanoma tumors [2]; day 15 post-tumor inoculation,236 mm^3
same,Mean Tumor Size,B16F10 melanoma tumors [2]; day 17 post-tumor inoculation,349 mm^3
same,Mean Tumor Size,B16F10 melanoma tumors [2]; day 20 post-tumor inoculation,796 mm^3
same,Mean Tumor Size,B16F10 melanoma tumors [2]; day 22 post-tumor inoculation,1206 mm^3
same,Mean Tumor Size,B16F10 melanoma tumors [3]; day 9 post-tumor inoculation,76 mm^3
same,Mean Tumor Size,B16F10 melanoma tumors [3]; day 10 post-tumor inoculation,116 mm^3
same,Mean Tumor Size,B16F10 melanoma tumors [3]; day 12 post-tumor inoculation,151 mm^3
same,Mean Tumor Size,B16F10 melanoma tumors [3]; day 14 post-tumor inoculation,196 mm^3
same,Mean Tumor Size,B16F10 melanoma tumors [3]; day 16 post-tumor inoculation,309 mm^3
same,Mean Tumor Size,B16F10 melanoma tumors [3]; day 18 post-tumor inoculation,405 mm^3
same,Mean Tumor Size,B16F10 melanoma tumors [3]; day 20 post-tumor inoculation,678 mm^3
same,% CD40+ of CD11c+/CD11b+/CD8+ cells (activated dendritic cells),[4],20%
same,% CD86+ of CD11c+/CD11b+/CD8+ cells (activated dendritic cells),[4],22.2%
same,% PD-L1+ of CD11c+/CD11b+/CD8+ cells (activated dendritic cells),[4],23%
same,% CD40+ of CD11c+/CD11b+/CD8+ cells (activated dendritic cells),[5],9.9%
same,% CD86+ of CD11c+/CD11b+/CD8+ cells (activated dendritic cells),[5],7.5%
same,% PD-L1+ of CD11c+/CD11b+/CD8+ cells (activated dendritic cells),[5],9%
